A short description of assay [1]: (§1) Inhibition of baker's yeast alpha-glucosidase using pNPG as substrate by spectrophotometry. On the set-up: species or system Saccharomyces cerevisiae.
Assay [2] deals with Alpha amylase (Homo sapiens) (UniProt P0DUB6). Description: Inhibition of alpha-amylase (unknown origin) up to 200 uM.
The species entered for assay [3] is Homo sapiens. The assay can be described thus: Inhibition of alpha-mannosidase (unknown origin) up to 200 uM.
The test system of assay [4] is Saccharomyces cerevisiae. Described as §1.
The species entered for assay [5] is Homo sapiens. Description: Inhibition of alpha-galactosidase (unknown origin) up to 200 uM.
The target of assay [6] is T1, Beta-glucosidase (Homo sapiens) (UniProt Q9HCG7).
T1 sequence (whole entry): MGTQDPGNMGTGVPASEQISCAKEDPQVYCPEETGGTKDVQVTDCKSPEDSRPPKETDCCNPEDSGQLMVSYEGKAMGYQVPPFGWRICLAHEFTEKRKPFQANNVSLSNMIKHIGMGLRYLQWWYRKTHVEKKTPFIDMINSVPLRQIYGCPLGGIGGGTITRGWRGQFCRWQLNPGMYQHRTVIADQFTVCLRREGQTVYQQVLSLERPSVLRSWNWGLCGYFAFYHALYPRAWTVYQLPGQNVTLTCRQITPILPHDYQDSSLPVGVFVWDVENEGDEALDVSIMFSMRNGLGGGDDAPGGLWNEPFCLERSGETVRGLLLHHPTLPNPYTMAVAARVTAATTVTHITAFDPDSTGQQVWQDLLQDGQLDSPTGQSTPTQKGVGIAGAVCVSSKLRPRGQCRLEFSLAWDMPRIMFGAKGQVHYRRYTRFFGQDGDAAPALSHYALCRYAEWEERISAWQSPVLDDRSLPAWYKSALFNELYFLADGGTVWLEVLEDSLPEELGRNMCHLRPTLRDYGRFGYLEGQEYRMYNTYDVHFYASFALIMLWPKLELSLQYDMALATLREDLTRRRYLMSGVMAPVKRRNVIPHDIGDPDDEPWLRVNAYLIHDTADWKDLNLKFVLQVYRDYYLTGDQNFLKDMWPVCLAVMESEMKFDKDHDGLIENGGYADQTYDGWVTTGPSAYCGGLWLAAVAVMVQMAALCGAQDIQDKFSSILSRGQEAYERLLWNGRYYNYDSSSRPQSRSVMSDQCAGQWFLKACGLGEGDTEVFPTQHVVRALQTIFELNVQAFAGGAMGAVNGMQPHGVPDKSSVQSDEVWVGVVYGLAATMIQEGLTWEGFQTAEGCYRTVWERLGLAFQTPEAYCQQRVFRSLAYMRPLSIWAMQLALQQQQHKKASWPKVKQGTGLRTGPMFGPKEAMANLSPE
The assay can be described thus: Inhibition of beta-glucosidase (unknown origin) up to 200 uM.

Assay [7] in a line: Uncompetitive inhibition of baker's yeast alpha-glucosidase using pNPG as substrate by Cornish-Bowden plot analysis. Also on record: species or system Saccharomyces cerevisiae.
Assay [8] has as its system Saccharomyces cerevisiae. The assay can be described thus: Uncompetitive inhibition of baker's yeast alpha-glucosidase using pNPG as substrate assessed as ratio of Kik to Kiv at 0.39 uM by Lineweaver-Burk plot analysis.
For assay [9], the system named is Saccharomyces cerevisiae. The assay can be described thus: Uncompetitive inhibition of baker's yeast alpha-glucosidase using pNPG as substrate assessed as ratio of Kik to Kiv at 0.19 uM by Lineweaver-Burk plot analysis.
Assay [10] relates to Saccharomyces cerevisiae. The assay can be described thus: Uncompetitive inhibition of baker's yeast alpha-glucosidase using pNPG as substrate assessed as ratio of Kik to Kiv at 0.78 uM by Lineweaver-Burk plot analysis.
For assay [11], the system named is Saccharomyces cerevisiae. Description: Uncompetitive inhibition of baker's yeast alpha-glucosidase using pNPG as substrate assessed as ratio of Kik to Kiv at 1.56 uM by Lineweaver-Burk plot analysis.

Calls of active or inactive are those of the source. The rule behind the calls is not given here.

By IC50 is commonly meant the concentration needed to halve the response being measured. A low value points to greater potency in that assay. The compound `OC[C@H]1NC[C@H](O)[C@@H](O)[C@@H]1O` [DUVOGLUSTAT] registered an IC50 in assay [1] of […].

Alpha amylase (Homo sapiens), sequence (P0DUB6 whole entry, looked up): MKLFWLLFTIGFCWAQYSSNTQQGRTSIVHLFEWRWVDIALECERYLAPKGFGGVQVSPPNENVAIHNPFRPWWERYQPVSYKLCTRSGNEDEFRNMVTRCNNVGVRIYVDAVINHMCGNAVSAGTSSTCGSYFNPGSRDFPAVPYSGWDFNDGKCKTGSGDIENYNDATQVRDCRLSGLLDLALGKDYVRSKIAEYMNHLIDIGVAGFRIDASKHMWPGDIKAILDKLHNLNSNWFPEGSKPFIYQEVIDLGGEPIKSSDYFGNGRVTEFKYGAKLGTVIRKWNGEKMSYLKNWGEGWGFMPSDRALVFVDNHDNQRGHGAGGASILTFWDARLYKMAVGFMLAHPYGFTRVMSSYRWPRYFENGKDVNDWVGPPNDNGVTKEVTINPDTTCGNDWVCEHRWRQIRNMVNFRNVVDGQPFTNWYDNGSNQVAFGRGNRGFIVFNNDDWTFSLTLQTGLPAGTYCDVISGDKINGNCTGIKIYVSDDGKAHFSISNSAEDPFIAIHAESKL

`O=C(/C=C/c1ccccc1)NCCc1ccc(O)cc1` returned an IC50 in [1] of 215 µM.

A word on the Ki: it is the dissociation constant of the complex between target and ligand, obtained from inhibition or displacement. Regarding `COc1cc(/C=C/C(=O)NCC(=O)c2ccc(O)cc2)ccc1O`, the inhibition entry (in assay [2]; in the assay filed under Homo sapiens [3]; in the assay listed under Homo sapiens [5]; in assay [6]) was “inactive” in each case. The compound further yielded an IC50 in [1] of 61.5 µM. For the same compound, the inhibition entry with Saccharomyces cerevisiae [4] was “Dose-dependent effect”. Further, in [7], the Ki amounted to 62.1 µM.

For the compound `O=C(/C=C/c1ccc(O)cc1)NCCc1ccc(O)c(O)c1`, inhibition in [1] was half-maximal at 1.63 µM (IC50). In assay [7], this compound showed a Ki of 1.74 µM.

For `O=C(CCc1ccc(O)cc1)NCCc1ccc(O)cc1`, in assay [1], inhibition was half-maximal at 19 µM (IC50). Besides, the affinity in assay [7], expressed as Ki, was 18.2 µM.

With `O=C(/C=C/c1ccc(O)c(O)c1)NCCc1ccc(O)cc1`, the inhibition result (in assay [2]; in the assay filed under Homo sapiens [3]; in the assay filed under Homo sapiens [5]; in assay [6]) was “inactive” throughout. The compound also returned an IC50 in assay [1] of 1.86 µM. For the same compound, the inhibition entry in the assay with Saccharomyces cerevisiae [4] is “Dose-dependent effect”. This compound had a Ki in assay [7] of 1.77 µM.

Compound `O=C(/C=C/c1ccc(O)cc1)NCCc1ccc(F)cc1` registered an IC50 in assay [1] of 1.22 µM. Affinity in [7] was put at a Ki of 1.38 µM.

With `O=C(/C=C/c1ccc(O)cc1)NCCc1ccc(O)cc1` [N-P-COUMAROYL TYRAMINE], the Ratio in the assay with Saccharomyces cerevisiae [8] was 1.04; in the assay on Saccharomyces cerevisiae [9] it was 1.03; in the assay with Saccharomyces cerevisiae [10] it was 1.05; in the assay on Saccharomyces cerevisiae [11], 1.03. The inhibition result (in [2]; in the assay filed under Homo sapiens [3]; in the assay listed under Homo sapiens [5]; in [6]) was “inactive” in each case. Moreover, half-maximal inhibition in [1] (IC50) required 0.42 µM. For the same compound, in the assay on Saccharomyces cerevisiae [4], the inhibition result was “Dose-dependent effect”. The same compound showed a Ki in [7] of 0.35 µM.

On to `COc1cc(/C=C/C(=O)NCCc2ccc(O)cc2)ccc1O` [N-TRANS-FERULOYL TYRAMINE], for which the inhibition entry (in assay [2]; in the assay listed under Homo sapiens [3]; in the assay listed under Homo sapiens [5]; in assay [6]) was “inactive” throughout. Besides, the IC50 in assay [1] was found to be 10.6 µM. In addition, the inhibition entry in the assay on Saccharomyces cerevisiae [4] was “Dose-dependent effect”. Moreover, in assay [7], the Ki was determined as 11.3 µM.

As for `COc1cc(/C=C/C(=O)NC(O)C(=O)c2ccc(O)cc2)ccc1O` (centres undefined), the inhibition result (in [2]; in the assay filed under Homo sapiens [3]; in the assay listed under Homo sapiens [5]; in assay [6]) was “inactive” each time. In addition, in [1], the IC50 worked out at 226 µM. The inhibition result with Saccharomyces cerevisiae [4] was “Dose-dependent effect”.

On to `O=C(/C=C/c1ccc(O)cc1)NCCc1ccccc1`, for which, in assay [1], inhibition was half-maximal at 0.31 µM (IC50). The affinity in assay [7], expressed as Ki, was 0.29 µM.

With `COc1cc(/C=C/C(=O)NCC(O)c2ccc(O)cc2)ccc1O` (centres undefined), the inhibition result (in assay [2]; in the assay filed under Homo sapiens [3]; in the assay listed under Homo sapiens [5]; in assay [6]) was “inactive” each time. Besides, 188 µM corresponded to half-maximal inhibition in assay [1] (IC50). In addition, in the assay with Saccharomyces cerevisiae [4], the inhibition result was “Dose-dependent effect”.
